According to US8858917B2, “Methods for limiting spread of pulmonary infections” (priority 2002, dated 2014):
Numbered stars: 1 amine (or outer) side, 2 acyl side, 3 side chain; on linkers, the order of the positions; unused ones are H or OH. Bridge positions count the residues as written; N and C are the ends. Square brackets hold non-standard residues; d marks the D form. Peptide text beside a SMILES is read from it. X1 = CC(C)CCCCCCCCC[C@H](CC(=O)[*:1])O[*:2]

Legend:
[1] = Dispersion / precipitation in ethanol; type: physicochemical; details: room temperature
Procedure: DLS can be used to measure the size and size distribution of the ethanol solutions. A suitable apparatus is an ALV DLS/SLS-5000 spectrometer/goniometer (ALV-Laser GmbH, Langen, Germany). The light source for the experiments is an Argon Ion laser of wavelength 514.5 nm (Coherent, Calif.). Light scattered by the sample is detected at an angle of 90° from the transmitted beam, where the effects of reflection are minimized. The sample cell is placed in a toluene bath maintained at a temperature of 25° C.

[2] = system: HSV-1 and HSV-2 strains; details: cultured cells; cited from earlier work
[3] = system: HIV-1 (strain NL4-3); details: pretreatment of virus; cited from earlier work
[4] = system: NIH 3T3 fibroblasts; details: 30% ethanol in 10% FBS DMEM for 10 seconds
[5] = system: viruses susceptible to its action; details: medium containing 5% fetal calf serum (FCS); cited from earlier work

**Q.** For CCCCCCCCCCCCCCCC(=O)OC[C@H](COP(=O)([O-])OCC[N+](C)(C)C)OC(=O)CCCCCCCCCCCCCCC [DPPC, dipalmitoyl phosphatidyl choline], which “concentration successfully dispersed in ethanol before sedimentation of aggregates” value [1] is on record?
**A.** up to 100 mg/mL

**Q.** With CCCCCCCCCCCCOS(=O)(=O)[O-].[Na+] [SLS, sodium lauryl sulfate] as the compound, how does the “inhibition of infectivities of various HSV-1 and HSV-2 strains” value [2] read?
**A.** potent inhibitors

**Q.** What about the “infectivity of HIV-1 to 1G5 cells after pretreatment” value [3] of the same compound?
**A.** reduced its infectivity

**Q.** For CCO [ethanol], which “cell death after exposure (CMFDA staining)” value [4] is on record?
**A.** insufficient to cause cell death

**Q.** For CC(C)CCCCCCCCC[C@@H]1CC(=O)N[C@@H](CCC(=O)O)C(=O)N[C@@H](CC(C)C)C(=O)N[C@H](CC(C)C)C(=O)N[C@@H](C(C)C)C(=O)N[C@@H](CC(=O)O)C(=O)N[C@H](CC(C)C)C(=O)N[C@@H](CC(C)C)C(=O)O1 [surfactin] (EL[dL]VD[dL]L; linker N-C via X1), which “concentration at which active” value [5] is on record?
**A.** 25 µM
